One data set deals with T1, IL-23R (Homo sapiens, UniProt Q5VWK5).
T1 construct: host or cells: HEK293
T1 sequence (Q5VWK5 24-629): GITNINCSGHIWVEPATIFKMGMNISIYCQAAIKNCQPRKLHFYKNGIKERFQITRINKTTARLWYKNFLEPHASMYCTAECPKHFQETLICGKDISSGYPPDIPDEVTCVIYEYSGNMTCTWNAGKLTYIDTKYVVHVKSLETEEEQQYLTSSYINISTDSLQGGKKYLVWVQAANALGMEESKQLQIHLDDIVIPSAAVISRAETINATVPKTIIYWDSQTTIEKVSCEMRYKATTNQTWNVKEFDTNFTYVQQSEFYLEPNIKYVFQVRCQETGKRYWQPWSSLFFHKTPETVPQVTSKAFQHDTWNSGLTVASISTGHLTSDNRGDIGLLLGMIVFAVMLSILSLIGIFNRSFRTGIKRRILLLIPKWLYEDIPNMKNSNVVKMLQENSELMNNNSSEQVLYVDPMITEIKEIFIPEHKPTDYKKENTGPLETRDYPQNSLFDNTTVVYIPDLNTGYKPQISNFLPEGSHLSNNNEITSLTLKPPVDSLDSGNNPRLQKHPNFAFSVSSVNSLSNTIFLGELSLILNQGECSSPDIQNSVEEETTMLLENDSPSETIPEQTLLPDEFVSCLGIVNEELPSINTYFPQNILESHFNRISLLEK
Briefly: IL23R Reporter Assay. Format: cell-based. Particulars: HEK293 cells containing IL-23R, IL-12RP1 and STAT-inducible firefly luciferase reporter; 10 ng/mL IL-23 (EC90); 5 h at 37° C.; read-out: IL23R Reporter Assay. On the technique in general: A reporter such as luciferase makes a cellular process visible.

Data set [1] in a line: Exposed Polar Surface Area (EPSA). Format: physicochemical. The note with it: SFC on Chirex 3014 column; sample 1 mM DMSO stock; read-out: EPSA. Summed up: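 EPSA, in Å^2, is read from SFC retention time through a linear relationship established with eight calibration standards. Separation uses a Chirex 3014 stationary phase, 35 °C, 14 MPa back pressure, and a 5–60% methanol/ammonium formate modifier gradient in CO2.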

Structures are written as SMILES. Where a name gives a salt, the structure may show the parent alone. Starred links: 1 amine or outer side, 2 acyl side, 3 side chain; linkers in the order of their positions; H or OH if unused. Positions of bridges follow the written chain, without caps; N, C: chain ends. Non-standard residues stand in square brackets, D forms with d. Residues, ends and D or L forms follow the SMILES beside them. *: point of attachment. X62 = C[N+]1(CCCCc2cn(-c3ccc(C[C@H](N[*:1])C(=O)[*:2])cc3)nn2)CCOCC1; X16 = C[N+](C)(C)Cc1cn(-c2ccc(C[C@H](N[*:1])C(=O)[*:2])cc2)nn1; Me3N+(CH2)2O(CH2)2O(CH2)2CO = C[N+](C)(C)CCOCCOCCC(=O)*; CH2CH2OCH2CH2OCH2CH2NMe3+ = C[N+](C)(C)CCOCCOCC*; Trp(7-Me) = Cc1cccc2c(C[C@H](N)C(=O)O)c[nH]c12; dLys(Me3) = C[N+](C)(C)CCCC[C@@H](N)C(=O)O; X47 = C[N+]1(C)CC[N+]2(CCN(CC*)CC2)CC1; 2Nal = N[C@@H](Cc1ccc2ccccc2c1)C(=O)O; AEF = NCCOc1ccc(C[C@H](N)C(=O)O)cc1; 3Pal = N[C@@H](Cc1cccnc1)C(=O)O; Lys(Me) = CNCCCC[C@H](N)C(=O)O; Pen = CC(C)(S)[C@H](N)C(=O)O; Thp = NC1(C(=O)O)CCOCC1; Tfa = O=C(C(F)(F)F)*; Sar = CNCC(=O)O Some results are limits rather than exact numbers.

For the compound `CC(=O)NCCCC[C@@H]1NC(=O)[C@H](Cc2c[nH]c3c(C)cccc23)NC(=O)[C@H]([C@@H](C)O)NC(=O)[C@H](CC(N)=O)NC(=O)[C@@H](NC(C)=O)C(C)(C)SSC(C)(C)[C@@H](C(=O)N[C@@H](Cc2ccc(OCCCCC[N+](C)(C)C)cc2)C(=O)N[C@@H](Cc2ccc3ccccc3c2)C(=O)NC2(C(=O)N[C@@H](CCCCNC(C)=O)C(=O)N[C@@H](CC(N)=O)C(=O)N[C@@H](Cc3cccnc3)C(=O)N(C)CC(N)=O)CCCCC2)NC1=O` [compound 538, MeCO-Pen(3)-N-T-7MeW-K(Ac)-Pen(3)-TMAPF-2Nal-Achx-K(Ac)-N-3Pya-Sar-CONH2], the IC50 on IL-23R worked out at 3.5 nM. For the same compound, the EPSA in data set [1] was 163 A^2.
For the compound `COCCOCCOCC[N+](C)(C)CCc1cn(C[C@H](NC(=O)[C@H]2NC(=O)[C@H](CCCCN(C)C(C)=O)NC(=O)[C@H](Cc3c[nH]c4c(C)cccc34)NC(=O)[C@H]([C@@H](C)O)NC(=O)[C@H](CC(=O)N(C)C)NC(=O)[C@@H](NC(=O)CCOCCOCC[N+](C)(C)C)C(C)(C)SSC2(C)C)C(=O)N[C@@H](Cc2ccc3ccccc3c2)C(=O)NC2(C(=O)N[C@@H](CCCCN(C)C(C)=O)C(=O)N[C@@H](CC(N)=O)C(=O)N[C@@H](Cc3cccnc3)C(=O)N(C)CC(=O)N(C)C)CCOCC2)nn1` [compound 289, cPEG3aCO-Pen(3)-N(N(Me)2)-T-7MeW-K(NMeAc)-Pen(3)-TzlChmPEG3-2Nal-THP-K(NMeAc)-N-3Pya-Sar-CON(Me)2], the IC50 at IL-23R was determined as 79 nM. In data set [1], the EPSA was 142 A^2.
In the case of `CC(=O)NCCCC[C@@H]1NC(=O)[C@H](Cc2c[nH]c3c(-c4cccc(NC(C)=O)c4)cccc23)NC(=O)[C@H]([C@@H](C)O)NC(=O)[C@H](CC(N)=O)NC(=O)[C@@H](NC(=O)CCOCCOCC[N+](C)(C)C)C(C)(C)SSC(C)(C)[C@@H](C(=O)N[C@@H](Cc2ccc(OCCCCC[N+](C)(C)C)cc2)C(=O)N[C@@H](Cc2ccc3ccccc3c2)C(=O)NC2(C(=O)N[C@@H](CCCCN(C)C(C)=O)C(=O)N[C@@H](CC(N)=O)C(=O)N[C@@H](Cc3cncc(C)c3)C(=O)N(C)CC(N)=O)CCOCC2)NC1=O` [compound 501, cPEG3aCO-Pen(3)-N-T-7(3NAcPh)W-K(Ac)-Pen(3)-TMAPF-2Nal-THP-K(NMeAc)-N-5MePyridinAla-Sar-CONH2], at IL-23R, the IC50 worked out at 4.6 nM. The EPSA in data set [1] was determined as 175 A^2.
For `CC(=O)N(C)CCCC[C@@H]1NC(=O)[C@H](C)NC(=O)[C@H]([C@@H](C)O)NC(=O)[C@H](CC(=O)N(C)C)NC(=O)[C@@H](NC(=O)CCOCCOCC[N+](C)(C)C)C(C)(C)SSC(C)(C)[C@@H](C(=O)N[C@@H](Cc2ccc(OCCOCCOCC[N+](C)(C)C)cc2)C(=O)N[C@@H](C)C(=O)NC2(C(=O)N[C@@H](CCCCN(C)C(C)=O)C(=O)N[C@@H](CC(N)=O)C(=O)N[C@@H](Cc3cccnc3)C(=O)N(C)CC(=O)N(C)C)CCOCC2)NC1=O` [compound 557, cPEG3aCO-Pen(3)-N(N(Me)2)-T-A-K(NMeAc)-Pen(3)-APEG3F-A-THP-K(NMeAc)-N-3Pya-Sar-CON(Me)2] ({Me3N+(CH2)2O(CH2)2O(CH2)2CO}-[Pen]D(NMe2)TA[Lys(Me)](Ac)[Pen]Y(CH2CH2OCH2CH2OCH2CH2NMe3+)A[Thp][Lys(Me)](Ac)N[3Pal][Sar]-NMe2; disulfide 1-6), in that order: over 16600 nM and 139 A^2.
With `CC(=O)N(C)CCCC[C@@H]1NC(=O)[C@H](Cc2c[nH]c3c(C)cccc23)NC(=O)[C@H]([C@@H](C)O)NC(=O)[C@H](CC(=O)N(C)C)NC(=O)[C@@H](NC(=O)CCOCCOCC[N+](C)(C)C)C(C)(C)SSC(C)(C)[C@@H](C(=O)N[C@@H](Cc2ccc(OCCN3CC[N+]4(CC3)CC[N+](C)(C)CC4)cc2)C(=O)N[C@@H](Cc2ccc3ccccc3c2)C(=O)NC2(C(=O)N[C@@H](CCCCN(C)C(C)=O)C(=O)N[C@@H](CC(N)=O)C(=O)N[C@@H](Cc3cccnc3)C(=O)N(C)CC(=O)N(C)C)CCOCC2)NC1=O` [compound 269, cPEG3aCO-Pen(3)-N(N(Me)2)-T-7MeW-K(NMeAc)-Pen(3)-DMTASF-2Nal-THP-K(NMeAc)-N-3Pya-Sar-CON(Me)2] ({Me3N+(CH2)2O(CH2)2O(CH2)2CO}-[Pen]D(NMe2)T[Trp(7-Me)][Lys(Me)](Ac)[Pen]Y(X47)[2Nal][Thp][Lys(Me)](Ac)N[3Pal][Sar]-NMe2; disulfide 1-6), on IL-23R, the IC50 turned out to be 1.4 nM. For the same compound, the EPSA in data set [1] came out at 167 A^2.
In the same order, the values of `CC(=O)NCCCC[C@@H]1NC(=O)[C@H](Cc2c[nH]c3c(C)cccc23)NC(=O)[C@H]([C@@H](C)O)NC(=O)[C@H](CC(N)=O)NC(=O)[C@@H](NC(=O)[C@@H](CCCC[N+](C)(C)C)NC(=O)C(F)(F)F)C(C)(C)SSC(C)(C)[C@@H](C(=O)N[C@@H](Cc2ccc(OCCN)cc2)C(=O)N[C@@H](Cc2ccc3ccccc3c2)C(=O)NC2(C(=O)N[C@@H](CCCCNC(C)=O)C(=O)N[C@@H](CC(N)=O)C(=O)N[C@@H](Cc3cccnc3)C(=O)N(C)CC(N)=O)CCOCC2)NC1=O` [compound 80] (Tfa-[dLys(Me3)][Pen]NT[Trp(7-Me)]K(Ac)[Pen][AEF][2Nal][Thp]K(Ac)N[3Pal][Sar]-NH2; disulfide 2-7 (inferred)) are 4.3 nM and 157 A^2.
Consider `CC(=O)N(C)CCCC[C@@H]1NC(=O)[C@H](Cc2c[nH]c3c(C)cccc23)NC(=O)[C@H]([C@@H](C)O)NC(=O)[C@H](CC(=O)N(C)C)NC(=O)[C@@H](NC(=O)CCOCCOCC[N+](C)(C)C)C(C)(C)SSC(C)(C)[C@@H](C(=O)N[C@@H](Cc2ccc(-n3cc(C[N+](C)(C)C)nn3)cc2)C(=O)N[C@@H](Cc2ccc3ccccc3c2)C(=O)NC2(C(=O)N[C@@H](CCCCN(C)C(C)=O)C(=O)N[C@@H](CC(N)=O)C(=O)N[C@@H](Cc3cccnc3)C(=O)N(C)CC(=O)N(C)C)CCOCC2)NC1=O` [compound 332, cPEG3aCO-Pen(3)-N(N(Me)2)-T-7MeW-K(NMeAc)-Pen(3)-F(4TzlTMA1)-2Nal-THP-K(NMeAc)-N-3Pya-Sar-CON(Me)2] ({Me3N+(CH2)2O(CH2)2O(CH2)2CO}-[Pen]D(NMe2)T[Trp(7-Me)][Lys(Me)](Ac)[Pen][X16][2Nal][Thp][Lys(Me)](Ac)N[3Pal][Sar]-NMe2; disulfide 1-6), for which the IC50 at IL-23R was 1.2 nM. Further, in data set [1], the EPSA worked out at 158 A^2.
In the same order, the values of `CC(=O)N(C)CCCC[C@@H]1NC(=O)[C@H](Cc2c[nH]c3c(C)cccc23)NC(=O)[C@H]([C@@H](C)O)NC(=O)[C@H](CC(=O)N(C)C)NC(=O)[C@@H](NC(=O)CCOCCOCC[N+](C)(C)C)C(C)(C)SSC(C)(C)[C@@H](C(=O)N[C@@H](Cc2ccc(-n3cc(CCCC[N+]4(C)CCOCC4)nn3)cc2)C(=O)N[C@@H](Cc2ccc3ccccc3c2)C(=O)NC2(C(=O)N[C@@H](CCCCN(C)C(C)=O)C(=O)N[C@@H](CC(N)=O)C(=O)N[C@@H](Cc3cccnc3)C(=O)N(C)CC(=O)N(C)C)CCOCC2)NC1=O` [compound 336, cPEG3aCO-Pen(3)-N(N(Me)2)-T-7MeW-K(NMeAc)-Pen(3)-F(4TzlMMo4)-2Nal-THP-K(NMeAc)-N-3Pya-Sar-CON(Me)2] ({Me3N+(CH2)2O(CH2)2O(CH2)2CO}-[Pen]D(NMe2)T[Trp(7-Me)][Lys(Me)](Ac)[Pen][X62][2Nal][Thp][Lys(Me)](Ac)N[3Pal][Sar]-NMe2; disulfide 1-6) are 1.5 nM and 156 A^2.

Source of the values: US20260022143A1, “Cyclic Peptide Inhibitors of IL-23” (JANSSEN PHARMACEUTICA NV, priority 2022, published 2026).
